Key:
[1] = test system: primary human AML cells; experiment: Colony formation (CFU) assay in methocult media; format: cell-based; conditions: 1 μM, 14 days
Method: Colony formation (CFU) assays in methocult media: CFU assays can detect an increase or decrease in the frequency of the hematopoietic progenitor proliferation and/or changes in differentiation potential in response to stimulatory, inhibitory or toxic agents. For CFU assays with primary AML cells, cells were cultured overnight in media containing IL-3, GM-CSF, SCF, and FLT3L cytokines at 20 ng/ml. 10-25K primary cells were suspended in MethoCult™ Optimum without EPO which is supplemented with SCF, IL-3, G-CSF, GM-CSF along with vehicle, 1 μM Cpd3 or 1 μM brequinar. After 14 days the total number of colonies was counted and the cells were solubilized from the methocult for cytospin assays described below. […] FIGS. 3A-3B show representative data for colony formation for primary human AML cells in the presence of a representative disclosed compound, Cpd3, compared to a reference compound, brequinar, or vehicle treatment using methods as described herein below. Briefly, primary AML cells were treated with vehicle (DMSO), Cpd3 (1 μM) or brequinar sodium (BQR, 1 μM) and plated in methocult media for 14 days. Results are plotted as the total number of colonies per each condition. Lines connecting data from the same patient sample are shown in order to indicate the trend within a particular sample.

[2] = test system: primary human AML cells; experiment: MTS assay in primary AML cells on HS5 stromal cells; format: cell-based; conditions: 96 hours
Method: Triplicate wells were set up for each condition.
Cpd3 efficacy was assessed in primary AML samples. Due to the poor in vitro viability of primary cells, these assays were performed in the presence of a support layer of human bone marrow stromal cells (HS5). Cells were treated with Cpd3 or BQR for 96 hours, followed by viability using an MTS assay. FIGS. 2A-2B show representative data for proliferation of primary human AML cells in the presence of a representative disclosed compound, Cpd3, compared to a reference compound, brequinar (BQR), using a MTS cell proliferation assay as described herein below. Briefly, primary AML cells were cultured in the presence human bone marrow stromal cells, and were treated with vehicle (DMSO), or varying doses of Cpd3 or brequinar sodium (BQR) for 96 hours. Cell growth was determined at 96 hours relative to the vehicle (DMSO) control using an MTS assay (N=6 primary AML samples). […] The IC50 values determined were variable, with an […] of about 0.2 μM in some samples. However, in other primary cell samples an IC50 could not be determined (FIG. 2A).

[3] = test system: primary human AML cells; experiment: Cytospin slides and Wright-Giemsa staining for differentiation; format: cell-based; conditions: 1 μM, 14 days
Method: Cytospin slides and Wright-Giemsa staining for differentiation: Primary AML cells were solubilized from the methocult in the CFU assays. 150-300K cells were immobilized onto microscope slides and stained with Wright-Giemsa stain. Differentiated myeloid cells were recognized by the typical morphological changes associated with early neutrophil differentiation including a characteristic multi-lobed or kidney bean shaped nucleus.
The primary AML cells following treatment with Cpd3 were analyzed by Wright-Giemsa stain. FIGS. 4A-4C show representative micrographs of primary human AML cells treated a representative disclosed compound, Cpd3, compared to a reference compound, brequinar, or vehicle treatment using methods as described herein below. Briefly, primary AML cells were treated with vehicle (DMSO), Cpd3 (1 μM) or brequinar (BQR, 1 μM) and plated in semi-solid methylcellulose-based media for 14 days. Cells were recovered from the methylcellulose and immobilized on glass slides and stained with a Wright-Giemsa stain (the more differentiated myeloid cells are indicated by the red arrows). The images are shown for vehicle treatment (FIG. 4A); Cpd3 treatment (FIG. 4B); and brequinar treatment (FIG. 4C). The primary human AML cells are from a representative patient sample. […]

[4] = test system: IDH2-R140Q/Flt3-ITD spleen cells (murine AML); experiment: IDH2-R140Q/Flt3-ITD adoptive transfer model; format: in vivo, NCG mice
From the text: Leukemic cells derived from a spontaneous murine model of Idh2/Flt3 AML, as reported by Shih et al (Cancer Discov. 7(5):494-505), were engrafted via adoptive transfer to generate an aggressive model of AML suitable for testing of therapeutic agents. Briefly, 6-8 week old mice harboring a heterozygous internal tandem duplication of FMS-like tyrosine kinase 3 (Flt3-ITD), a heterozygous point mutation of isocitrate dehydrogenase 2 (Idh2-R140Q) preceeded by a loxP flanked STOP codon, and Cre recombinase under the MX dynamin like GTPase 1 (Mx1) promoter were injected i.p. with polyinosinic:polycytidylic acid (poly(I:C)), activating Cre recombinase and inducing hematopoietic-specific expression of the Idh2-R140Q mutation. Spleen cells from these mice were collected after the development of lethal AML (defined by study removal criteria), typically 8-14 months post-poly(I:C) injection. 1×10^5 spleen cells from a single leukemic donor were engrafted by tail vein injection into 6 week old immune deficient NOD-Prkdc^em26Cd52//2rg^em26Cd22/NjuCrl mice (NCG; Charles River). At one week post-engraftment, animals were randomized to vehicle (5% EtOH, 10% Kolliphor EL, in PBS), enasidenib (100 mg/kg), and HOSU-3 (50 mg/kg) treatment arms and dosed by daily oral gavage. Personnel responsible for animal monitoring, dosing, and decisions regarding euthanasia were blinded to treatment arms. Survival was assessed using Kaplan-Meier analysis and p-values were determined using the log-rank test and adjusted using Holm's method.

[5] = test system: AML cell lines (MOLM13, MV4-11, THP1, HL-60, and OCI-AML3); experiment: cells; conditions: read-out: IC50 range for growth arrest in AML cell lines
Method: MTS assay for cell growth/viability: Mitochondrial activity was measured to determine cell proliferation using an MTS assay (tetrazolium dye 3′[4,5-dimethylthiazol-2-yl]-2,5-diphenyl-tetrazolium bromide). Metabolically active cells convert MTS tetrazolium salt into a purple formazan product that is soluble in tissue culture medium. The amount of formazan measured at 490 nm absorbance is proportional to the number of proliferating cells. […] Triplicate wells were set up for each condition. At 96 hours, the MTS reagent was added and after approximately 4 hours the plates were read in a spectrophotometer. MTS assays in primary AML cells were done in a similar manner as the cell lines with the following changes: 100K cells were plated per well, and the MTS was done in the presence of an HS5 stromal cell line to support the in vitro growth of the primary cells. Primary cells were incubated with MTS for approximately 8-12 hours (varies with the samples) before reading the absorbance.
Cell proliferation assays were carried out using the MTS assay described herein using five AML cell lines (i.e., MOLM13, MV4-11, THP1, HL-60, and OCI-AML3) with varied genetic backgrounds. The assays were carried out in a blinded fashion.

CCOc1ccc(-c2ccc(-c3cc(C(=O)O)c4cc(F)ccc4n3)cc2)cc1 [Cpd3, 2-(4′-ethoxy-[1,1′-biphenyl]-4-yl)-6-fluoroquinoline-4-carboxylic acid]
growth in methocult colony forming unit (CFU) assays [1]: decreased growth
IC60 in primary AML samples ([2]; HS5 stromal support, some samples): about 0.2 μM
growth of primary AML cells ([2]; N=6 primary AML samples): decreases growth of primary AML cells comparable to the reference compound
differentiation by Wright-Giemsa stain [3]: induces differentiation in primary human AML cells
survival compared to vehicle and enasidinib treatment groups ([4]; 50 mg/kg once daily): significant improvement in survival
Median survival ([4]; daily oral gavage, Cpd3 50 mg/kg, enasidenib 100 mg/kg): 42 days
IC50 [5]: 0.28 to 1.1 µM

— patent publication US11999697B2, “Methods and compositions for inhibition of dihydroorotate dehydrogenase” (OHIO STATE INNOVATION FOUNDATION, priority 2018, dated 2024)
